In patent US20200360260A1, “TOPICAL COMPOSITION COMPRISING ANTIMICROBIAL LIPID” (Conopco, Inc., d/b/a UNILEVER, priority 2017, published 2020):

Assays:
Type in all cases: cell-based
Details in all cases: for combined effect with AMLs: in combination with AMLs
S. aureus (ATCC 12600) = test: ΣFIC assay against S. aureus
Experimental: (§1) Method: ΣFIC Assay Against M. Furfur, S. Aureus and P Acnes
(§2) M. furfur (CBS1878) was inoculated into Pityrosporum Broth (PB, solution A) and incubated in a shaking incubator at 32° C. for 2 days. The suspension containing the microbe was then diluted 10-times by PB and incubated again at 32° C. for another 2 days. The inoculum was further diluted by PB to get around 10^4 cells /ml. S. aureus (ATCC 12600) was inoculated into Tryptone Soya Broth (TSB, Oxoid: CM0129) and incubated in a shaking incubator at 37° C. for 1 day. The suspension containing the microbe was then diluted 10-times with TSB and incubated again at 37° C. for another 1 day. The inoculum was further diluted by TSB to get around 10^5 cells/ml.
(§3) Honokiol (Ex. Sigma) 50 mg/ml in DMSO (50,000 ppm); Magnolol (Ex. Sigma) 50 mg/ml in DMSO (50,000 ppm); Sapienic acid (Ex. Parchem, CAS# 17004-51-2) 100 mg/ml in 100% ethanol (100,000 ppm); D-Sphingosine (Ex. Sigma S7049) 5 mg/ml in 50% ethanol (5,000 ppm); D-erythro-Dihydrosphingosine (Ex. Sigma D3314) 5 mg/ml in 50% ethanol (5,000 ppm); Phytosphingosine (Ex. Evonik) 5 mg/m stock in 50% ethanol (5,000 ppm); Palmitoleic acid (Ex. Sigma 76169) 100 mg/ml in 100% ethanol (100,000 ppm).
(§4) The ΣFIC test was conducted based on the principle previously described in Hall M J, Middleton R F, & Westmacott D (1983), The fractional inhibitory concentration (FIC) index as a measure of synergy. Journal of Antimicrobial Chemotherapy 11(5):427-433. The procedure is as follows:
(§5) Twenty (20) μl of compound A (honokiol or magnolol as applicable to the test) and 20 μl of compound B (a selection of different AMLs as applicable to the test) were mixed in corresponding wells of a 96-well plate. An amount of 160 μl of microbial suspension was dispensed in each well and the broth medium as taken as a blank control for comparison of results. The total reaction volume in each well was 200 μl.
(§6) Thereafter the 96-well plates were incubated in an incubator. In accordance with the test protocols that were followed, M. furfur was incubated aerobically at 32° C. for 1 day, S. aureus was incubated aerobically at 37° C. for 1 day and P. acnes was incubated anaerobically at 37° C. for 4 days. Thereafter 20 μl alamar blue (0.1%) was dispensed in each well and the procedure of incubation (as abovementioned) was repeated. Finally, the change in colour of the indicator was monitored to check for visible signs of microbial growth or inhibition of the growth. If the colour changed to red it indicated growth (of microbes) and blue indicated no growth or inhibition of growth.
(§7) After all the observations were recorded and tabulated, the Fractional Inhibition Concentration (FIC) was calculated. The combination effect of inhibitory antimicrobials is widely explored using the concept of the Fractional Concentration (FC) and Fractional Inhibitory Concentration (FIC). This parameter is defined as follows:
(§8) ΣFIC=FIC (component 1)+FIC (component 2)
(§9) The final concentration of each ingredient in ppm (parts per million) after (10-fold dilution) was as follows. Each of these concentrations was tried out to determine the FIC value for (either of) honokiol or magnolol in combination with one of the AMLs.

M. furfur (CBS1878) = test: ΣFIC assay against M. furfur
Experimental: as §1, §2, §3, §4, §5, §6, §7, §8, §9

[1] = tested on: Propionibacterium acnes (ATCC 6919); test: ΣFIC assay against P. acnes
Experimental: as §1
Propionibacterium acnes (ATCC 6919) was inoculated from freezer into liquid Reinforced Clostridial Medium (RCM, HepoBio: HB0316) for 3 days (anaerobic conditions) growth at 37° C. The suspension containing the microbe was then diluted 10-times with RCM and incubated again under 37° C. for another 3 days. The inoculum was further diluted by RCM to get around 10^4 cells/ml.
as §3, §4, §5, §6, §7, §8, §9

| SMILES | The range of concentration of the ingredient (ppm) where the ΣFIC was less than 0.9: AML (S. aureus (ATCC 12600); in combination with honokiol) [ppm] | The range of concentration of the ingredient (ppm) where the ΣFIC was less than 0.9: AML (S. aureus (ATCC 12600); in combination with magnolol) [ppm] | The range of ratio of honokiol/AML (w/w) where ΣFIC was less than 0.9 (S. aureus (ATCC 12600)) [w/w] | The range of ratio of magnolol/AML (w/w) where ΣFIC was less than 0.9 (S. aureus (ATCC 12600)) [w/w] | The range of concentration of the ingredient (ppm) where the ΣFIC was less than 0.9: AML (M. furfur (CBS1878); in combination with honokiol) [ppm] | The range of concentration of the ingredient (ppm) where the ΣFIC was less than 0.9: AML (M. furfur (CBS1878); in combination with magnolol) [ppm] | The range of ratio of honokiol/AML (w/w) where ΣFIC was less than 0.9 (M. furfur (CBS1878)) [w/w] | The range of ratio of magnolol/AML (w/w) where ΣFIC was less than 0.9 (M. furfur (CBS1878)) [w/w] | The range of concentration of the ingredient (ppm) where the ΣFIC was less than 0.9: AML ([1]; in combination with honokiol) [ppm] | The range of concentration of the ingredient (ppm) where the ΣFIC was less than 0.9: AML ([1]; in combination with magnolol) [ppm] | The range of ratio of honokiol/AML (w/w) where ΣFIC was less than 0.9 [1] [w/w] | The range of ratio of magnolol/AML (w/w) where ΣFIC was less than 0.9 [1] [w/w] | combined effect with AMLs (S. aureus (ATCC 12600)) | combined effect with AMLs (M. furfur (CBS1878)) | combined effect with AMLs [1] |
| --- | --- | --- | --- | --- | --- | --- | --- | --- | --- | --- | --- | --- | --- | --- | --- |
| CCCCCCCCCCCCCCC[C@@H](O)[C@@H](N)CO [dihydrosphingosine, D-erythro-Dihydrosphingosine] | 0.63 to 2.50 | 0.63 to 1.25 | 0.8 to 12.5 | 0.4 to 12.5 | 31.25 to 125 | 15.63 to 125 | 5 to 40 | 5 to 80 | 0.63 to 2.50 | 0.63 to 2.50 | 0.2 to 6.5 | 0.7 to 6.5 |  |  |  |
| C=CCc1ccc(O)c(-c2ccc(O)c(CC=C)c2)c1 [honokiol, Honokiol] |  |  |  |  |  |  |  |  |  |  |  |  | synergistic effect | synergistic effect | synergistic effect |
| C=CCc1ccc(O)c(-c2cc(CC=C)ccc2O)c1 [magnolol, Magnolol] |  |  |  |  |  |  |  |  |  |  |  |  | synergistic effect | synergistic effect | synergistic effect |
| CCCCCC/C=C\CCCCCCCC(=O)O [palmitoleic acid, Palmitoleic acid] | 3.91 to 62.5 | 3.91 to 52.5 | 0.008 to 2 | 0.008 to 2 | 625 to 5000 | 625 to 5000 | 0.06 to 2 | 0.03 to 2 | 1.95 to 7.81 | 1.95 to 7.81 | 0.06 to 1 | 0.1 to 4 |  |  |  |
| CCCCCCCCCCCCCC[C@@H](O)[C@@H](O)[C@@H](N)CO [phytosphingosine, Phytosphingosine] | 0.63 to 5.00 | 0.63 to 2.50 | 0.4 to 12.5 | 0.2 to 12.5 | 15.63 to 62.5 | 3.91 to 62.5 | 10 to 80 | 10 to 320 | 1.25 to 5.00 | 0.63 to 5.00 | 0.2 to 3.2 | 0.4 to 12.5 |  |  |  |
| CCCCCCCCC/C=C\CCCCC(=O)O [sapienic acid, Sapienic acid] | 3.91 to 62.5 | 1.95 to 31.25 | 0.008 to 2 | 0.01 to 4 | 625 to 2500 | 625 to 5000 | 0.25 to 1 | 0.06 to 2 | 1.95 to 3.91 | 1.95 to 3.91 | 0.25 to 1 | 0.25 to 1 |  |  |  |
| CCCCCCCCCCCCC/C=C/[C@@H](O)[C@@H](N)CO [sphingosine, D-Sphingosine] | 0.31 to 1.25 | 0.31 to 0.63 | 0.8 to 25 | 1.5 to 25 | 31.25 to 250 | 31.25 to 125 | 1.25 to 40 | 5 to 40 | 0.31 to 1.25 | 0.31 to 1.25 | 0.7 to 13 | 1.5 to 13 |  |  |  |
